Data as given in US20240043470A1, “MACROCYCLIC COMPOUNDS AS PROTEASOME INHIBITORS” (CORNELL UNIVERSITY, priority 2017, published 2024).
Read-outs that look alike come from different tables or passages of the source. Blank lines part the entries; values can stand above or below the compound they belong to.

Columns and labels:
[1] = from C=CCCCCC[C@H](NC(=O)[C@H](CC(=O)N1CCCC1)NC(=O)CCCC=C)C(=O)NCc1cccc2ccccc12; rcm bond; Grubbs 2nd Generation catalyst; CH2Cl2; 1.11 mM; 50.0 °C; 20.0 h
[2] = from (hex-5-enoyl)-Asp(pyrrolidin-1-yl amide)-((2S)-2-aminonon-8-enoic acid)-NHCH2(1-naphthyl)?; rcm bond; 16-membered ring; Grubbs II; CH2Cl2; 1.11 mM; 50.0 °C
β5c of hu c-20S = β5c of hu c-20S (Homo sapiens (Human), UniProt P20618+P28074); experiment: IC50 determination against β5c of human constitutive proteasome (suc-LLVY-AMC hydrolysis); assay type: biochemical; conditions: 0.2 nM c-20S, 25 μM suc-LLVY-AMC;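 also: IC50 obtained by fitting initial reaction velocities to a dose-dependent inhibition model, with SDS present as proteasome activator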
β5i of hu i-20S = β5i of hu i-20S (Homo sapiens (Human), UniProt P20618+P28062); experiment: IC50 determination against β5i of human immunoproteasome (Ac-ANW-AMC hydrolysis); assay type: biochemical; conditions: β5i, 0.4 nM i-20S, 15 μM Ac-ANW-AMC;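 also: enzyme activity taken as the initial reaction velocity per well, with SDS added to activate the proteasome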
[3] = system: IL-6 in LPS-stimulated human macrophages; experiment: Inhibition of IL-6 in LPS-stimulated human macrophages (Q-PCR and ELISA); assay type: cell-based; conditions: LPS 50 ng/ml; 6 h gene expression (FIG. 1A), 24 h ELISA (FIG. 1B); compound added 15 minutes before LPS
Method: Monocytes were isolated from the blood of 2 healthy donors using CD14 magnetic beads and cultured with 20 ng/ml of MCSF for 24 hours to induce the differentiation into macrophages. 200,000 cells/wells in 96 wells plate were incubated with LPS (50 ng/ml) for 6 hours for RNA isolation and gene expression analysis (FIG. 1A) and 24 hours for ELISA (FIG. 1B). The proteasome inhibitor 4-13 used at the indicated concentration was added 15 minutes before adding LPS. At 6 hours, RNA were prepared using Qiagen RNA plus kit and cDNA were synthetized using the Thermofisher cDNA synthesis kit (FIG. 1A). Q-PCR was performed in duplicate and expression levels normalized to the level of the housekeeping gene ubiquitin. At 24 hours, supernatants were collected and IL-6 production quantified by ELISA (FIG. 1B).

[4] = amide bond, 16-membered ring, EDCI/HOBt/DIEA, DMF

IC50 (β5c of hu c-20S): > 100 µM
IC50 (β5i of hu i-20S): 4.36 µM
Compound: O=C1CCC/C=C\CCCCC[C@@H](C(=O)NCc2cccc3ccccc23)NC(=O)[C@H](CC(=O)N2CCCC2)N1 [Compound 4-05, (2S,5S,11Z)—N-(1-Naphthylmethyl)-3,16-dioxo-2-(2-oxo-2-pyrrolidin-1-yl-ethyl)-1,4-diazacyclohexadec-11-ene-5-carboxamide]
ring closure, yield of all isomers [1]: 36%
ring closure, isolated yield [2]: 36%

IC50 (β5c of hu c-20S): 0.274 µM
IC50 (β5i of hu i-20S): 0.018 µM
Compound: O=C1CCCCCCCCCC[C@@H](C(=O)NCc2ccccc2F)NC(=O)[C@H](CC(=O)N2CCCC2C2CC2)N1 (stereo partly drawn) [Compound 4-13]
Inhibition of IL-6 in LPS-stimulated human macrophages [3]: inhibition of IL-6

Compound: (5S,8S,11S)-6-Methyl-7,10-dioxo-11-(2-oxopyrrolidin-1-yl)-8-phenethyl-N-(2,2,2-trifluoroethyl)-2-oxa-6,9-diaza-1,3(1,3)-dibenzenacyclododecaphane-5-carboxamide
ring closure, yield after HPLC ([4]; 18.3 mM, 25.0 °C): 26%

Compound: (5S,8S,11S)-7,10-Dioxo-11-(2-oxopyrrolidin-1-yl)-8-(2-(piperidin-1-yl)ethyl)-N-(2,2,2-trifluoroethyl)-2-oxa-6,9-diaza-1,3(1,3)-dibenzenacyclododecaphane-5-carboxamide
ring closure, yield after HPLC ([4]; 15.8 mM, 20.0 °C): 24.2%
